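Cells were grown in 96-well plates and exposed to each compound for 48 hours at five concentrations; endpoints were interpolated linearly between bracketing concentrations, or set to the highest concentration if not reached. Here, GI50 denotes the concentration required for 50% inhibition of growth. TGI: concentration producing complete growth inhibition.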
Key:
Assay in all cases: NCI tumour cell line growth inhibition, 48 h
RXF 393 renal = system: RXF 393 renal
MDA-MB-231 breast = system: MDA-MB-231 breast
A498 renal = system: A498 renal
HL-60(TB) leukemia = system: HL-60(TB) leukemia
PC-3 prostate = system: PC-3 prostate
NCI-H226 lung = system: NCI-H226 lung
NCI/ADR-RES ovarian = system: NCI/ADR-RES ovarian
NCI-H522 lung = system: NCI-H522 lung
HCT-15 colon = system: HCT-15 colon
HS 578T breast = system: HS 578T breast

In the case of `C=C1C(=O)OC2CC(C)C(C(O)CC(C)O)=CCC12` (stereo not given), the TGI (RXF 393 renal) is reported as 30.5 µM, the TGI (MDA-MB-231 breast) is reported as 33.8 µM and the TGI (A498 renal) is reported as 32.1 µM. It also gave a TGI (HL-60(TB) leukemia) of 13.5 µM, a TGI (PC-3 prostate) of 57 µM and a TGI (NCI-H226 lung) of 72.7 µM. The TGI (NCI/ADR-RES ovarian) was 41 µM, the TGI (NCI-H522 lung) was 3.29 µM and the TGI (HCT-15 colon) was 41.4 µM. For the same compound, the TGI (HS 578T breast) was 62 µM.
`COc1ccc(-c2nnc(N3CCN(C(=O)CN4CCN(c5ccccc5)CC4)CC3)nc2-c2ccc(OC)cc2)cc1` gave a GI50 (RXF 393 renal) of 3.36 µM, a TGI (RXF 393 renal) of 22.4 µM and a GI50 (MDA-MB-231 breast) of 13.4 µM. For the same compound, the TGI (MDA-MB-231 breast) was > 100 µM, the GI50 (A498 renal) was 3 µM and the TGI (A498 renal) was 19.1 µM. It also gave a GI50 (HL-60(TB) leukemia) of 1.89 µM, a TGI (HL-60(TB) leukemia) of 5.56 µM and a GI50 (PC-3 prostate) of 3.83 µM. For the same compound, the TGI (PC-3 prostate) was > 100 µM, the GI50 (NCI-H226 lung) was 3.76 µM and the TGI (NCI-H226 lung) was > 100 µM. The GI50 (NCI/ADR-RES ovarian) was 5.15 µM, the TGI (NCI/ADR-RES ovarian) was > 100 µM and the GI50 (NCI-H522 lung) was 7.44 µM. For the same compound, the TGI (NCI-H522 lung) was > 100 µM, the GI50 (HCT-15 colon) was 3.13 µM and the TGI (HCT-15 colon) was > 100 µM. It also gave a GI50 (HS 578T breast) of 5.15 µM and a TGI (HS 578T breast) of 71.5 µM.
In the case of `O=C(/C=C/C=C/c1ccccc1)c1ccccc1`, the TGI (RXF 393 renal) is reported as 37.3 µM, the TGI (MDA-MB-231 breast) is reported as 37.8 µM and the TGI (A498 renal) is reported as 31.5 µM. For the same compound, the TGI (HL-60(TB) leukemia) was 28.6 µM, the TGI (PC-3 prostate) was 37.2 µM and the TGI (NCI-H226 lung) was 34.3 µM. The TGI (NCI/ADR-RES ovarian) was 27.1 µM, the TGI (NCI-H522 lung) was 20.2 µM and the TGI (HCT-15 colon) was 28.8 µM. It also gave a TGI (HS 578T breast) of 55.4 µM.
For `CCc1c(Cl)c(C)cc(O)c1Cl`, the TGI (RXF 393 renal) was > 100 µM, the TGI (MDA-MB-231 breast) was > 100 µM and the TGI (A498 renal) was 54.7 µM. It also gave a TGI (HL-60(TB) leukemia) of 40.8 µM, a TGI (PC-3 prostate) of 51.3 µM and a TGI (NCI-H226 lung) of 63.2 µM. The TGI (NCI/ADR-RES ovarian) was > 100 µM, the TGI (NCI-H522 lung) was > 100 µM and the TGI (HCT-15 colon) was 38.9 µM. The TGI (HS 578T breast) was 99.7 µM.
In the case of `Cn1c(Nc2ccc(C(F)(F)F)cc2)nc2cc(Oc3ccnc(-c4ncc(C(F)(F)F)[nH]4)c3)ccc21`, the GI50 (RXF 393 renal) is reported as 0.0544 µM, the TGI (RXF 393 renal) is reported as 7.32 µM and the GI50 (MDA-MB-231 breast) is reported as 0.803 µM. For the same compound, the TGI (MDA-MB-231 breast) was 12.2 µM, the GI50 (A498 renal) was 0.0297 µM and the TGI (A498 renal) was 0.851 µM. For the same compound, the GI50 (HL-60(TB) leukemia) was 0.365 µM, the TGI (HL-60(TB) leukemia) was 7.06 µM and the GI50 (PC-3 prostate) was 1.53 µM. It also gave a TGI (PC-3 prostate) of 17.2 µM, a GI50 (NCI-H226 lung) of 0.492 µM and a TGI (NCI-H226 lung) of 16.5 µM. It also gave a GI50 (NCI/ADR-RES ovarian) of 1.64 µM, a TGI (NCI/ADR-RES ovarian) of 13.4 µM and a GI50 (NCI-H522 lung) of 0.307 µM. The TGI (NCI-H522 lung) was 11 µM, the GI50 (HCT-15 colon) was 0.0697 µM and the TGI (HCT-15 colon) was 12.8 µM. It also gave a GI50 (HS 578T breast) of 0.0555 µM and a TGI (HS 578T breast) of 9.41 µM.
With `CC(C(=O)O)c1cccc(Oc2ccccc2)c1` (stereo not given) the GI50 (RXF 393 renal) was > 100 µM, the TGI (RXF 393 renal) was > 100 µM and the GI50 (MDA-MB-231 breast) was > 100 µM. The TGI (MDA-MB-231 breast) was > 100 µM, the GI50 (A498 renal) was > 100 µM and the TGI (A498 renal) was > 100 µM. The GI50 (HL-60(TB) leukemia) was > 100 µM, the TGI (HL-60(TB) leukemia) was > 100 µM and the GI50 (PC-3 prostate) was > 100 µM. The TGI (PC-3 prostate) was > 100 µM, the GI50 (NCI-H226 lung) was > 100 µM and the TGI (NCI-H226 lung) was > 100 µM. For the same compound, the GI50 (NCI/ADR-RES ovarian) was > 100 µM, the TGI (NCI/ADR-RES ovarian) was > 100 µM and the GI50 (NCI-H522 lung) was > 100 µM. The TGI (NCI-H522 lung) was > 100 µM, the GI50 (HCT-15 colon) was > 100 µM and the TGI (HCT-15 colon) was > 100 µM. The GI50 (HS 578T breast) was > 100 µM and the TGI (HS 578T breast) was > 100 µM.
